Measurements published in paper PMC6542800 (Nature Communications, 2019).

How the values were obtained:
[1] = target: T1, Curled (NOCT ortholog), full-length, Curled 1-419 (Drosophila melanogaster, UniProt A8JQX3); test: ion-exchange chromatography, UV […] nm; type: biochemical; settings: 22 °C, 20 mM Tris-HCl pH 8.0, 70 mM NaCl, 2 mM MgCl2
T1 construct: gene cu; full length 1-419 of splicing form H; E. coli, pGEX-6P, GST tag removed with Prescission protease
T1 sequence (A8JQX3 224-642): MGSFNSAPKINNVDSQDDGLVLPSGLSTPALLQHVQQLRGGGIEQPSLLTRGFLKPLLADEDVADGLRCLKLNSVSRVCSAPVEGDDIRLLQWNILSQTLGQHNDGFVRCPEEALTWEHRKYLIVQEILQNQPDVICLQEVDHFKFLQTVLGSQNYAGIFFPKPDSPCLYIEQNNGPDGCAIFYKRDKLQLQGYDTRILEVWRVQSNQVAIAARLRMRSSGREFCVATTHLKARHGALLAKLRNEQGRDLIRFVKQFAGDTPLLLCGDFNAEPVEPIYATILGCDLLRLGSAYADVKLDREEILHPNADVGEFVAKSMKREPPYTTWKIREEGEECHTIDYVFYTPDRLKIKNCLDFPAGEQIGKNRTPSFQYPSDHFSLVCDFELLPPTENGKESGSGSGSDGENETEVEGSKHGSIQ

[2] = target: T2, NOCT (122-431), catalytic domain of human NOCT (Homo sapiens, UniProt Q9UK39); test: LC-MS/MS product detection; type: biochemical; settings: 10 μM enzyme, 1 h at r.t.
T2 construct: catalytic domain, residues 122-431; E. coli BL21 (DE3)-CodonPlus RIPL, pGEX-6P, GST tag removed with Prescission protease
T2 sequence (Q9UK39 122-431): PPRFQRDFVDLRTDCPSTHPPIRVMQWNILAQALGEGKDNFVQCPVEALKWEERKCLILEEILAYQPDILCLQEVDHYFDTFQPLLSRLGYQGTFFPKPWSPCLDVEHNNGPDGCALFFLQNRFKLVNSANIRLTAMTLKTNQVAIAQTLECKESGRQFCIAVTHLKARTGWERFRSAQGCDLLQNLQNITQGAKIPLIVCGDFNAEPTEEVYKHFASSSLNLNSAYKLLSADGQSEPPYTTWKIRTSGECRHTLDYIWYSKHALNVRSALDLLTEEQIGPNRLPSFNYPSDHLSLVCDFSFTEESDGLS

[3] = target: T3, full-length (FL) human NOCT (Homo sapiens, UniProt Q9UK39); test: ion-exchange chromatography, UV […] nm; type: biochemical; settings: 22 °C, 20 mM Tris-HCl pH 8.0, 70 mM NaCl, 2 mM MgCl2; 1 mM substrate, 0.5 μM enzyme
T3 construct: E. coli, pGEX-6P, GST tag removed with Prescission protease
T3 sequence (Q9UK39 1-431): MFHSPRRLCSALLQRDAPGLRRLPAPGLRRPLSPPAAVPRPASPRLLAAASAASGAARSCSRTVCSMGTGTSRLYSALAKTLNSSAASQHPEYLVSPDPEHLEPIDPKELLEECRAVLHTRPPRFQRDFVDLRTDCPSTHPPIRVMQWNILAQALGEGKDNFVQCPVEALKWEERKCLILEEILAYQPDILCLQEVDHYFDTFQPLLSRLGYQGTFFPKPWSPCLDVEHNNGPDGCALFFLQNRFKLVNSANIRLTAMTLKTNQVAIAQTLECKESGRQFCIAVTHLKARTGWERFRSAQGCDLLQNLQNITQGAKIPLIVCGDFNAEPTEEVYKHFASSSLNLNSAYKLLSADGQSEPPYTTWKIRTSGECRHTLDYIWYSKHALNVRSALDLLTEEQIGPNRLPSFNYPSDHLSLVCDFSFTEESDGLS

purified protein = substrate: NC(=O)C1=CN([C@@H]2O[C@H](COP(=O)(O)OP(=O)(O)OC[C@H]3O[C@@H](n4cnc5c(N)ncnc54)[C@H](OP(=O)(O)O)[C@@H]3O)[C@@H](O)[C@H]2O)C=CC1; test: purified protein; settings: 22 °C, 20 mM Tris-HCl pH 8.0, 70 mM NaCl

NC(=O)C1=CN([C@@H]2O[C@H](COP(=O)(O)OP(=O)(O)OC[C@H]3O[C@@H](n4cnc5c(N)ncnc54)[C@H](OP(=O)(O)O)[C@@H]3O)[C@@H](O)[C@H]2O)C=CC1 [NADPH] was tested, and the “ion-exchange chromatography, UV 260 nm” value ([1]; 1 mM substrate, 500 nM enzyme) was “In contrast, Curled readily cleaved NADPH (Fig. 5c; Supplementary Fig. 5b)”.

In the case of NC(=O)c1ccc[n+]([C@@H]2O[C@H](COP(=O)(O)OP(=O)(O)OC[C@H]3O[C@@H](n4cnc5c(N)ncnc54)[C@H](OP(=O)(O)O)[C@@H]3O)[C@@H](O)[C@H]2O)c1 [NADP^+], the LC-MS/MS product detection [2] is reported as “converted NADPH into NADH and NADP^+ into NAD^+ (Fig. 1c)”, the “ion-exchange chromatography, UV 260 nm” value [3] is reported as “conversion of both NADP^+ and NADPH into NAD^+ and NADH, respectively by full-length (FL) NOCT” and the “ion-exchange chromatography, UV 260 nm” value [1] is reported as “Curled cleaved both NADP^+ and NADPH, exhibiting a preference for NADPH”.

B1: full-length (FL) human NOCT (Homo sapiens) (protein)
chain: MFHSPRRLCSALLQRDAPGLRRLPAPGLRRPLSPPAAVPRPASPRLLAAASAASGAARSCSRTVCSMGTGTSRLYSALAKTLNSSAASQHPEYLVSPDPEHLEPIDPKELLEECRAVLHTRPPRFQRDFVDLRTDCPSTHPPIRVMQWNILAQALGEGKDNFVQCPVEALKWEERKCLILEEILAYQPDILCLQEVDHYFDTFQPLLSRLGYQGTFFPKPWSPCLDVEHNNGPDGCALFFLQNRFKLVNSANIRLTAMTLKTNQVAIAQTLECKESGRQFCIAVTHLKARTGWERFRSAQGCDLLQNLQNITQGAKIPLIVCGDFNAEPTEEVYKHFASSSLNLNSAYKLLSADGQSEPPYTTWKIRTSGECRHTLDYIWYSKHALNVRSALDLLTEEQIGPNRLPSFNYPSDHLSLVCDFSFTEESDGLS
B1 was tested, and the kcat (purified protein; 2 mM MgCl2, printed range may span catalytic domain and full-length protein) was 34 s⁻¹.

B2: NOCT (122-431), catalytic domain of human NOCT (Homo sapiens) (protein)
chain: PPRFQRDFVDLRTDCPSTHPPIRVMQWNILAQALGEGKDNFVQCPVEALKWEERKCLILEEILAYQPDILCLQEVDHYFDTFQPLLSRLGYQGTFFPKPWSPCLDVEHNNGPDGCALFFLQNRFKLVNSANIRLTAMTLKTNQVAIAQTLECKESGRQFCIAVTHLKARTGWERFRSAQGCDLLQNLQNITQGAKIPLIVCGDFNAEPTEEVYKHFASSSLNLNSAYKLLSADGQSEPPYTTWKIRTSGECRHTLDYIWYSKHALNVRSALDLLTEEQIGPNRLPSFNYPSDHLSLVCDFSFTEESDGLS
B2 showed a kcat (purified protein; 2 mM MgCl2, 4.8 μM enzyme, printed range may span catalytic domain and full-length protein) of 3.6 s⁻¹.
